Drawing on PubChem BioAssay (NCI), this text covers TGI and GI50 for 23 compounds.

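Assay format: 96-well plates, 48-hour exposure. Here, GI50 denotes the concentration required for 50% inhibition of growth. The concentration for full growth arrest is given as TGI.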

Some test systems named below: RPMI-8226 leukemia; CCRF-CEM leukemia; HCT-116 colon; HOP-92 NSCLC; COLO 205 colon; UACC-62 melanoma; SK-OV-3 ovarian; MCF7 breast; T-47D breast; PC-3 prostate.
Common to all, as to test: NCI tumour cell line growth inhibition, 48 h

`O=C(O)CNCc1c2ccccc2[n+]([O-])c2ccccc12`: the TGI was over 100 µM in the test with RPMI-8226 leukemia; over 100 µM in the test on CCRF-CEM leukemia; over 100 µM in the test with HCT-116 colon; 78.1 µM in the test on HOP-92 NSCLC; over 100 µM in the test with COLO 205 colon; over 100 µM in the test on UACC-62 melanoma. The compound further yielded a TGI with SK-OV-3 ovarian of over 100 µM.

In the case of `CSc1sc(=S)sc1SC`, the TGI in the test with RPMI-8226 leukemia, with CCRF-CEM leukemia, in the test on HCT-116 colon, with MCF7 breast, in the test with HOP-92 NSCLC and in the test with COLO 205 colon was over 100 µM in each case. Besides, the TGI in the test with UACC-62 melanoma and in the test with SK-OV-3 ovarian was over 100 µM each time.

Take `COc1cc2c3c(c4cc(OC)c(OC)cc4c2cc1OC)[C@H](O)[C@@H]1CCCN1C3`: the TGI with RPMI-8226 leukemia was 0.44 µM; with CCRF-CEM leukemia it was over 100 µM; with HCT-116 colon, 7.64 µM; in the test with T-47D breast, 2.53 µM; in the test with HOP-92 NSCLC it was 2.32 µM; with COLO 205 colon it was 0.154 µM. In addition, the TGI with UACC-62 melanoma turned out to be 0.395 µM; in the test on PC-3 prostate, 1.98 µM; in the test with SK-OV-3 ovarian, 1.69 µM.

For `O=C(O)C(Br)Cc1ccc2c(c1)OCO2` (stereo not drawn), the TGI in the test with RPMI-8226 leukemia, in the test on CCRF-CEM leukemia, in the test with HCT-116 colon, in the test on HOP-92 NSCLC, in the test on COLO 205 colon and in the test on UACC-62 melanoma was over 100 µM each time. Besides, in the test on SK-OV-3 ovarian, the TGI was over 100 µM.

For the compound `COC(=O)c1nc2c3c(cccc3c1C(=O)OC)Nc1ccccc1-2`, the TGI is over 100 µM in the test on RPMI-8226 leukemia; over 100 µM in the test with CCRF-CEM leukemia; over 100 µM in the test on HCT-116 colon; over 100 µM with MCF7 breast; 50.2 µM in the test with HOP-92 NSCLC; over 100 µM in the test with COLO 205 colon. Further, the values for the TGI in the test on UACC-62 melanoma, in the test with PC-3 prostate and in the test on SK-OV-3 ovarian were 55.7 µM, 82.1 µM and over 100 µM, respectively.

In the case of `CC1(C)N=C(N)N=C(N)N1c1cccc(OCc2cccc([N+](=O)[O-])c2)c1`, the TGI was over 100 µM in the test on RPMI-8226 leukemia; over 100 µM in the test with CCRF-CEM leukemia; over 100 µM in the test on HCT-116 colon; over 89.1 µM with T-47D breast; over 100 µM with MCF7 breast; over 100 µM with HOP-92 NSCLC. The TGI in the test with COLO 205 colon is over 100 µM; in the test on UACC-62 melanoma, over 100 µM; with PC-3 prostate it was over 82.7 µM; in the test with SK-OV-3 ovarian it was over 100 µM.

Regarding `C=CC(c1ccccc1)C1(O)c2cccc(O)c2C(=O)c2c(O)cccc21` (stereo not drawn), the TGI in the test on RPMI-8226 leukemia turned out to be 54.8 µM; with HCT-116 colon it was 24.7 µM; with T-47D breast, 42.3 µM; in the test with MCF7 breast it was 37.8 µM; in the test on HOP-92 NSCLC, 30.5 µM; with PC-3 prostate, 28.1 µM.

Take `CCCCCCCCCCCCCCCCOCCCOP(=O)(O)C1CCCN(O)C1=O` (stereo not drawn): the GI50 was 0.936 µM in the test with RPMI-8226 leukemia; 0.553 µM in the test with CCRF-CEM leukemia; 6.15 µM in the test on T-47D breast; 3.39 µM with MCF7 breast; 6.08 µM in the test with HOP-92 NSCLC; 0.548 µM in the test with COLO 205 colon. The GI50 is 1.29 µM in the test with UACC-62 melanoma, 0.468 µM in the test with PC-3 prostate and 3.62 µM with SK-OV-3 ovarian. Moreover, the TGI with RPMI-8226 leukemia came out at 29.4 µM; in the test with CCRF-CEM leukemia, 30 µM; with T-47D breast it was 27.5 µM; in the test on MCF7 breast, 20 µM; in the test with HOP-92 NSCLC it was 40 µM; in the test on COLO 205 colon, 13.3 µM. The TGI with UACC-62 melanoma worked out at 7.18 µM; in the test with PC-3 prostate, 13.6 µM; in the test with SK-OV-3 ovarian, 16.7 µM.

Consider `S=C1NN=C2C(=C3CCCC4C5CCCCC5N2C34)N1` (stereo not drawn), for which the TGI in the test on RPMI-8226 leukemia, in the test with CCRF-CEM leukemia, in the test on T-47D breast, in the test on MCF7 breast, with HOP-92 NSCLC and in the test with COLO 205 colon was over 100 µM in each case. In addition, the TGI in the test on SK-OV-3 ovarian was over 100 µM.

In the case of `O=C1c2ccccc2C(=O)c2c(O)c(O)cc(O)c21`, the TGI in the test with RPMI-8226 leukemia was 70.1 µM; in the test with CCRF-CEM leukemia it was over 100 µM; with HCT-116 colon, 77.1 µM; in the test with HOP-92 NSCLC, 76.2 µM; in the test on COLO 205 colon, over 100 µM; in the test with UACC-62 melanoma it was 64.8 µM. In the test with SK-OV-3 ovarian, this compound came in with a TGI of 82.7 µM.

In the case of `C/C(=C\COP(=O)(O)OP(=O)(O)O)CC/C=C(\C)CNc1ccc([N+](=O)[O-])cc1`, the TGI in the test with RPMI-8226 leukemia, with CCRF-CEM leukemia, with HCT-116 colon, in the test on T-47D breast, in the test with MCF7 breast and with HOP-92 NSCLC was over 100 µM throughout. Besides, the TGI with COLO 205 colon, with UACC-62 melanoma, in the test on PC-3 prostate and with SK-OV-3 ovarian was over 100 µM throughout.

Turning to `COc1ccc2c(c1)/C(=C\c1cccc(/C=C3/C(=O)Nc4ccc(OC)cc43)n1)C(=O)N2`, the TGI with CCRF-CEM leukemia was over 38 µM; in the test with HCT-116 colon, 1.29 µM; in the test on T-47D breast it was 2.53 µM; in the test on MCF7 breast, over 25.6 µM; in the test on HOP-92 NSCLC, 7.44 µM; with COLO 205 colon, 2.04 µM. Besides, the results for the TGI with UACC-62 melanoma, with PC-3 prostate and in the test with SK-OV-3 ovarian were 2.28 µM, 8.91 µM and 17.3 µM, respectively. In addition, in the test on UACC-62 melanoma, the GI50 is 0.703 µM.

`COc1ccc(/C=C/[N+](=O)[O-])cc1`: the TGI with HCT-116 colon was over 100 µM; in the test with MCF7 breast, 5.83 µM; in the test with COLO 205 colon, over 100 µM; in the test with UACC-62 melanoma it was 39.7 µM.

As for `C#C[C@@]1(O)[C@@H](CO)O[C@@H](n2cc(F)c3c(N)ncnc32)[C@@H]1O`, the GI50 was 0.221 µM in the test with RPMI-8226 leukemia; 0.338 µM in the test on CCRF-CEM leukemia; 0.214 µM with T-47D breast; 0.263 µM in the test with COLO 205 colon; 0.331 µM in the test with UACC-62 melanoma; 0.293 µM with PC-3 prostate. For the same compound, in the test with SK-OV-3 ovarian, the GI50 was 0.285 µM. The TGI in the test with RPMI-8226 leukemia is 1.98 µM; with CCRF-CEM leukemia, over 100 µM; in the test on T-47D breast, 0.77 µM; in the test with COLO 205 colon, 1.3 µM; in the test on UACC-62 melanoma, 1.47 µM; with PC-3 prostate, 3.24 µM. The same compound showed a TGI with SK-OV-3 ovarian of 2.09 µM.

Consider `N#CC1=C(N)Nc2nc3ccccc3n2C1c1ccccc1` (stereo not drawn), for which the TGI was 31 µM with RPMI-8226 leukemia; over 100 µM with CCRF-CEM leukemia; over 100 µM in the test on HCT-116 colon; 63.1 µM in the test on T-47D breast; over 100 µM with MCF7 breast; over 100 µM in the test with COLO 205 colon. Moreover, the TGI in the test on UACC-62 melanoma, with PC-3 prostate and with SK-OV-3 ovarian was over 100 µM in each case.

As to `C[C@H](CCC1=NCCN1)[C@H]1CC[C@H]2[C@@H]3CC[C@@H]4C[C@H](O)CC[C@]4(C)[C@H]3CC[C@]12C`, the TGI in the test on RPMI-8226 leukemia was 13.4 µM; in the test with CCRF-CEM leukemia, 14.2 µM; in the test with HCT-116 colon, over 36.9 µM; in the test on T-47D breast it was over 51.8 µM; in the test on MCF7 breast, over 57.4 µM; with HOP-92 NSCLC, 19.5 µM. In addition, the TGI with COLO 205 colon was determined as 3.18 µM; with UACC-62 melanoma, 4.26 µM; in the test with PC-3 prostate, 28.4 µM; in the test on SK-OV-3 ovarian, 45.3 µM.

As to `O=C1OC2(c3ccc(O)cc3Oc3cc(O)ccc32)c2c1c(-c1ccccc1)c(-c1ccccc1)c(-c1ccccc1)c2-c1ccccc1`, the TGI is 70.2 µM in the test on RPMI-8226 leukemia; 57.3 µM in the test on HCT-116 colon; 71.4 µM in the test with T-47D breast; 31.1 µM in the test with MCF7 breast; 36.8 µM in the test with HOP-92 NSCLC; 35.2 µM with COLO 205 colon. Moreover, the TGI in the test on UACC-62 melanoma was 32.9 µM; in the test on PC-3 prostate, 32.7 µM; with SK-OV-3 ovarian, over 100 µM.

For `Nc1nncs1`, the TGI in the test on RPMI-8226 leukemia was over 5000 µM; in the test with CCRF-CEM leukemia, over 5000 µM; with HCT-116 colon, over 5000 µM; in the test with T-47D breast, over 4800 µM; in the test with MCF7 breast it was over 5000 µM; in the test on HOP-92 NSCLC, 4660 µM. For the same compound, the TGI was over 3840 µM in the test with COLO 205 colon, over 3890 µM in the test on UACC-62 melanoma, over 5000 µM in the test with PC-3 prostate and 928 µM with SK-OV-3 ovarian.

On to `NC(=O)c1cc(C2OC(CO)C(O)C2O)nn1-c1ccc([N+](=O)[O-])cc1` (stereo not drawn), for which the TGI in the test on RPMI-8226 leukemia, in the test with CCRF-CEM leukemia, in the test with HCT-116 colon, with HOP-92 NSCLC, with COLO 205 colon and with UACC-62 melanoma was over 100 µM each time. This compound also showed a TGI in the test on SK-OV-3 ovarian of over 100 µM.

As to `N#CC(C#N)=C1CCCCc2ccc([N+](=O)[O-])cc21`, the TGI in the test with RPMI-8226 leukemia is 87.5 µM; in the test with CCRF-CEM leukemia, over 100 µM; in the test on HCT-116 colon, 54.8 µM; in the test on T-47D breast it was over 100 µM; with MCF7 breast, over 100 µM; in the test on HOP-92 NSCLC, over 100 µM. The TGI in the test on COLO 205 colon, in the test on UACC-62 melanoma, in the test on PC-3 prostate and in the test on SK-OV-3 ovarian was over 100 µM each time.

Turning to `COc1cc2c3c(n(C4CCNCC4)c(=O)c2cc1OC)-c1cc2c(cc1C3=O)OCO2`, the GI50 in the test with RPMI-8226 leukemia was 0.773 µM; in the test with CCRF-CEM leukemia, 0.287 µM; with T-47D breast, 0.395 µM; in the test on HOP-92 NSCLC, 2.45 µM; with COLO 205 colon it was 0.986 µM; in the test on SK-OV-3 ovarian, 0.402 µM. Moreover, the TGI in the test on RPMI-8226 leukemia was 3.68 µM; in the test on CCRF-CEM leukemia it was 2.25 µM; with T-47D breast, 2.38 µM; with HOP-92 NSCLC, 28.3 µM; in the test with COLO 205 colon, 2.33 µM; in the test with SK-OV-3 ovarian it was 1.75 µM.

As to `O=C(O)Cc1[nH]cnc1C(=O)O`, the TGI in the test with RPMI-8226 leukemia, with CCRF-CEM leukemia, with HCT-116 colon, in the test with T-47D breast, in the test with MCF7 breast and in the test on HOP-92 NSCLC was over 100 µM throughout. The TGI with COLO 205 colon, in the test on UACC-62 melanoma, in the test on PC-3 prostate and with SK-OV-3 ovarian was over 100 µM each time.

Regarding `CSc1ccc(-c2cc(-c3nc4ccccc4[nH]3)nc3[nH]c(-c4nc5ccccc5[nH]4)cc(=O)c23)cc1`, the TGI with RPMI-8226 leukemia, in the test on CCRF-CEM leukemia, in the test with HCT-116 colon, in the test with T-47D breast, in the test on MCF7 breast and with HOP-92 NSCLC was over 100 µM throughout. For the same compound, the TGI in the test with COLO 205 colon, in the test on UACC-62 melanoma, in the test on PC-3 prostate and with SK-OV-3 ovarian was over 100 µM in each case.
